From patent US9682938B2, “Pyrazolone derivatives as nitroxyl donors” (Cardioxyl Pharmaceuticals, Inc., priority 2014, dated 2017)

What was measured:
Format in all cases: in vitro ADME
[1] = In vitro plasma stability, rat plasma; conditions: male, pH 7.4, 5 μM, 37° C., sampling 0-360 minutes, read-out: T1/2 Rat
Procedure: (§1) Certain compounds from Table 1 were tested for their stability in plasma. The assay system comprised plasma from rat, dog or human (at least 3 donors, male, pooled) at pH 7.4, and (ii) an anticoagulant (sodium heparin or sodium citrate). Each test compound (5 μM) was incubated in plasma at 37° C. on a THERMOMIXER® with shaking. Three samples (n=3) were taken at each of seven sampling time points: 0, 10, 30, 60, 90, 180 and 360 minutes. The samples were immediately combined with 3 volumes (i.e., 3 times the volume of plasma) of acetonitrile containing 1% formic acid and an internal standard to terminate the reaction. AB SCIEX API 3000 LC-MS/MS analysis of the test compounds was performed without a standard curve. Plasma half-lives (T1/2) of the test compounds were determined from graphs of the percent remaining values using the peak area response ratio.

[2] = In vitro plasma stability, human plasma; conditions: male, pH 7.4, 5 μM, 37° C., sampling 0-360 minutes, read-out: T1/2 Human
Procedure: as §1

[3] = In vitro plasma stability, dog plasma; conditions: male, pH 7.4, 5 μM, 37° C., sampling 0-360 minutes, read-out: T1/2 Dog
Procedure: as §1

| Structure (SMILES) | half-life at 5 μM [1] [min] | half-life at 5 μM [2] [min] | half-life at 5 μM [3] [min] |
| --- | --- | --- | --- |
| CN1N=C(c2ccc(S(C)(=O)=O)c(Cl)c2)C(C)(NO)C1=O (stereo not drawn) [Compound 70, 3-(3-Chloro-4-methanesulfonylphenyl)-4-(hydroxyamino)-1,4-dimethyl-4,5-dihydro-1H-pyrazol-5-one] | 43 | 31 | 27 |
| COc1ccc(C2=NN(C)C(=O)C2(C)NO)cc1 (stereo not drawn) [Compound 53, 4-(hydroxyamino)-3-(4-methoxyphenyl)-1,4-dimethyl-1H-pyrazol-5(4H)-one] | 350 | 480 | 256 |
| CN1N=C(c2ccc([S+](C)[O-])c(F)c2)C(C)(NO)C1=O (stereo not drawn) [Compound 38, 5-(3-fluoro-4-(methylsulfinyl)phenyl)-4-(hydroxyamino)-2,4-dimethyl-2,4-dihydro-3H-pyrazol-3-one] | 54 | 46 | 33 |
| CO/N=C(\C)C1(NO)C(=O)N(C)N=C1c1ccc(F)cc1 (stereo not drawn) [Compound 64, 3-(4-fluorophenyl)-4-(hydroxyamino)-4-(1-(methoxyimino)ethyl)-1-methyl-1H-pyrazol-5(4H)-one] | 6 | 8 | 16 |
| CSc1ccc(C2=NN(C)C(=O)C2(C)NO)cc1 (stereo not drawn) [Compound 36, 4-(hydroxyamino)-2,4-dimethyl-5-(4-(methylthio)phenyl)-2,4-dihydro-3H-pyrazol-3-one] | 300 | 152 | 133 |
| COC(=O)c1ccc(C2=NN(C)C(=O)C2(C)NO)cc1 (stereo not drawn) [Compound 71, Methyl 4-[4-(hydroxyamino)-1,4 dimethyl-5-oxo-4,5-dihydro-1H-pyrazol-3-yl]benzoate] | 3 | 58 | 71 |
| CC(C)(C)C1=NN(c2ccccc2)C(=O)C1(C)NO (stereo not drawn) [Compound 23, 5-(tert-butyl)-4-(hydroxyamino)-4-methyl-2-phenyl-2,4-dihydro-3H-pyrazol-3-one] | 136 | 104 | 120 |
| CC1=NN(c2ccc(S(C)(=O)=O)cc2)C(=O)C1(C)NO (stereo not drawn) [Compound 33, 4-(hydroxyamino)-4,5-dimethyl-2-(4-(methylsulfonyl)phenyl)-2,4-dihydro-3H-pyrazol-3-one] | 175 | 130 | 100 |
| CC1=NN(C(C)C)C(=O)C1(NO)c1ccccc1 (stereo not drawn) [Compound 30, 4-(hydroxyamino)-1-isopropyl-3-methyl-4-phenyl-1H-pyrazol-5(4H)-one] | 32 | 22 | 84 |
| CC(C)N1N=C(c2ccc(S(C)(=O)=O)cc2)C(C)(NO)C1=O (stereo not drawn) [Compound 32, 4-(hydroxyamino)-2-iso-propyl-4-methyl-5-(4-(methylsulfonyl)phenyl)-2,4-dihydro-3H-pyrazol-3-one] | 64 | 100 | 148 |
| CN1N=C(c2ccc([S+]([O-])C(F)(F)F)cc2)C(C)(NO)C1=O (stereo not drawn) [Compound 35, 4-(hydroxyamino)-2,4-dimethyl-5-(4-((trifluoromethyl)sulfinyl)phenyl)-2,4-dihydro-3H-pyrazol-3-one] | 79 | 76 | 44 |
| CN1N=C(c2cc(Cl)cc(Cl)c2)C(C)(NO)C1=O (stereo not drawn) [Compound 9, 5-(3,5-dichlorophenyl)-4-(hydroxyamino)-2,4-dimethyl-2,4-dihydro-3H-pyrazol-3-one] | 17 | 43 | 59 |
| CN1N=C(c2ccc(SC(F)(F)F)cc2)C(C)(NO)C1=O (stereo not drawn) [Compound 67, 4-(hydroxyamino)-1,4-dimethyl-3-(4-((trifluoromethyl)thio)phenyl)-1H-pyrazol-5(4H)-one] | 106 | 59 | 78 |

Further lines, results first:

| half-life at 5 μM [1] [min] | half-life at 5 μM [2] [min] | half-life at 5 μM [3] [min] | Structure (SMILES) |
| --- | --- | --- | --- |
| 243 | 183 | 175 | CN1N=C(c2ccc(C(=O)O)cc2)C(C)(NO)C1=O (stereo not drawn) [Compound 74, 4-[4-(Hydroxyamino)-1,4-dimethyl-5-oxo-4,5-dihydro-1H-pyrazol-3-yl]benzoic acid] |
| 15 | 10 | 13 | CCOC1=NN(C)C(=O)C1(NO)/C(C)=N/OCc1ccccc1 (stereo not drawn) [Compound 125, 4-[1-[(Benzyloxy)imino]ethyl]-3-ethoxy-4-(hydroxyamino)-1-methyl-4,5-dihydro-1H-pyrazol-5-one] |
| 72 | 49 | 37 | COCCN(C)S(=O)(=O)c1ccc(C2=NN(C)C(=O)C2(C)NO)cc1 (stereo not drawn) [Compound 90, 4-[4-(Hydroxyamino)-1,4-dimethyl-5-oxo-4,5-dihydro-1H-pyrazol-3-yl]-N-(2-methoxyethyl)-N-methylbenzene-1-sulfonamide] |
| 11 | 6 | 6 | CO/N=C(\C)C1(NO)C(=O)N(C)N=C1c1ccc(C(=O)N(C)C)cc1 (stereo not drawn) [Compound 123, 4-[4-(Hydroxyamino)-4-[1-(methoxyimino)ethyl]-1-methyl-5-oxo-4,5-dihydro-1H-pyrazol-3-yl]-N,N-dimethylbenzamide] |
| 116 | 110 | 126 | CC1(NO)C(=O)NN=C1c1ccc(S(C)(=O)=O)cc1 (stereo not drawn) [Compound 133, 4-(Hydroxyamino)-3-(4-methanesulfonylphenyl)-4-methyl-4,5-dihydro-1H-pyrazol-5-one] |
| 20 | 17 | 26 | CCO/N=C(\C)C1(NO)C(=O)NN=C1C(C)(C)C (stereo not drawn) [Compound 134, 3-tert-Butyl-4-[1-(ethoxyimino)ethyl]-4-(hydroxyamino)-4,5-dihydro-1H-pyrazol-5-one] |
| 8 | 10 | 11 | CN1N=C(c2ccccc2)C(NO)(c2ccccc2)C1=O (stereo not drawn) [Compound 109, 4-(Hydroxyamino)-1-methyl-3,4-diphenyl-4,5-dihydro-1H-pyrazol-5-one] |
| 89 | 61 | 136 | CN1N=C(c2ccc(Br)cc2)C(C)(NO)C1=O (stereo not drawn) [Compound 108, 3-(4-Bromophenyl)-4-(hydroxyamino)-1,4-dimethyl-4,5-dihydro-1H-pyrazol-5-one] |
| 11 | 12 | 16 | CC1=NN(C)C(=O)C1(NO)c1cccc(C)c1 (stereo not drawn) [Compound 98, 4-(Hydroxyamino)-1,3-dimethyl-4-(3-methylphenyl)-4,5-dihydro-1H-pyrazol-5-one] |
| 59 | 28 | 33 | CN1N=C(c2ccc(S(C)(=O)=O)c(S(C)(=O)=O)c2)C(C)(NO)C1=O (stereo not drawn) [Compound 104, 3-(3,4-Dimethanesulfonylphenyl)-4-(hydroxyamino)-1,4-dimethyl-4,5-dihydro-1H-pyrazol-5-one] |
| 18 | 18 | 30 | CCOC1=NN(C)C(=O)C1(NO)/C(C)=N/OC (stereo not drawn) [Compound 126, 3-Ethoxy-4-(hydroxyamino)-4-[1-(methoxyimino)ethyl]-1-methyl-4,5-dihydro-1H-pyrazol-5-one] |
